System: genotype A, "Long" strain RSV
Assay: RSV-A in vitro cytoprotection assay in HEp-2 cells (ATPlite readout of cell viability)
Type: cell-based, Human respiratory syncytial virus
Settings: human respiratory syncytial virus, HEp-2, HEp-2 cells, genotype A “Long” strain RSV, cytoprotection; read-out: Human RSV-A (“Long” strain) EC50
Summary of the method: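 HEp-2 cells (8,000/well) given 2-fold compound dilutions in duplicate, then infected with RSV-A Long strain stock; viability read by ATPlite luminescence after 4 days. EC50 derived from cytoprotection; cytotoxicity measured on parallel uninfected plate.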

Q: With COc1ccccc1CN(c1cccc(C(=O)N2CCc3cc(C(=O)Nc4c(C)cccc4F)sc3-c3ccccc32)n1)C1CC1 [Example 342] as the compound, how does the EC50 read?
A: 400 to 800 nM

Q: Which EC50 does the source give for COc1cccc(CN(C)c2cccc(C(=O)N3CCc4cc(C(=O)Nc5c(C)cccc5F)sc4-c4ccccc43)n2)c1 [Example 343] here?
A: < 400 nM

Q: How did the EC50 turn out when COc1ccc(CN(C)c2cccc(C(=O)N3CCc4cc(C(=O)Nc5c(C)cccc5F)sc4-c4ccccc43)n2)cc1 [Example 344] was run?
A: < 400 nM

Q: For Cc1cccc(F)c1NC(=O)c1cc2c(s1)-c1ccccc1N(C(=O)c1cccc(NCc3cccc4ccccc34)n1)CC2 [Example 345], which EC50 is on record?
A: > 800 nM

Q: Cc1cccc(F)c1NC(=O)c1cc2c(s1)-c1ccccc1N(C(=O)c1cccc(N(C)Cc3cccc(-c4ccncc4)c3)n1)CC2 [Example 346] was tested. Which EC50 did it give?
A: 400 to 800 nM

Q: For COc1ccccc1[C@H](C)Nc1cccc(C(=O)N2CCc3cc(C(=O)Nc4c(C)cccc4F)sc3-c3ccccc32)n1 [Example 347], which EC50 is on record?
A: > 800 nM

Q: With CCN(CCOC)c1cccc(C(=O)N2CCc3cc(C(=O)Nc4c(C)cccc4F)sc3-c3ccccc32)n1 [Example 348] as the compound, how does the EC50 read?
A: < 400 nM

Q: Which EC50 does the source give for Cc1cc(CNc2cccc(C(=O)N3CCc4cc(C(=O)Nc5c(C)cccc5F)sc4-c4ccccc43)n2)on1 [Example 349] here?
A: < 400 nM

Q: Which EC50 does the source give for Cc1cccc(F)c1NC(=O)c1cc2c(s1)-c1ccccc1N(C(=O)c1cccc(NCc3ncco3)n1)CC2 [Example 350] here?
A: < 400 nM

Q: Cc1cccc(F)c1NC(=O)c1cc2c(s1)-c1ccccc1N(C(=O)c1cccc(N(C)Cc3cccc(-c4cccnc4)c3)n1)CC2 [Example 351] was tested. Which EC50 did it give?
A: > 800 nM

Q: With Cc1cccc(F)c1NC(=O)c1cc2c(s1)-c1ccccc1N(C(=O)c1cccc(N(C)Cc3cccc(-c4ccccc4)c3)n1)CC2 [Example 352] as the compound, how does the EC50 read?
A: 400 to 800 nM

Q: With Cc1cccc(F)c1NC(=O)c1cc2c(s1)-c1ccccc1N(C(=O)c1cccc(N(C)Cc3cccc4ccccc34)n1)CC2 [Example 353] as the compound, how does the EC50 read?
A: > 800 nM

Q: Cc1cccc(F)c1NC(=O)c1cc2c(s1)-c1ccccc1N(C(=O)c1cccc(N(C)Cc3ccc4ccccc4c3)n1)CC2 [Example 354] was tested. Which EC50 did it give?
A: > 800 nM

Q: With Cc1cccc(F)c1NC(=O)c1cc2c(s1)-c1ccccc1N(C(=O)c1cccc(N(C)Cc3ccccc3-c3ccccc3)n1)CC2 [Example 355] as the compound, how does the EC50 read?
A: > 800 nM

Q: For COc1ccc2cc(CN(C)c3cccc(C(=O)N4CCc5cc(C(=O)Nc6c(C)cccc6F)sc5-c5ccccc54)n3)ccc2c1 [Example 356], which EC50 is on record?
A: > 800 nM

Q: How did the EC50 turn out when Cc1cccc(F)c1NC(=O)c1cc2c(s1)-c1ccccc1N(C(=O)c1cccc(NCc3cccc(C(F)(F)F)n3)n1)CC2 [Example 357] was run?
A: > 800 nM

Q: For Cc1cccc(F)c1NC(=O)c1cc2c(s1)-c1ccccc1N(C(=O)c1cccc(NC(C)(C)c3ccccn3)n1)CC2 [Example 358], which EC50 is on record?
A: < 400 nM

Q: Which EC50 does the source give for COC[C@H]1CCCN1c1cccc(C(=O)N2CCc3cc(C(=O)Nc4c(C)cccc4F)sc3-c3cc(F)ccc32)n1 [Example 359] here?
A: < 400 nM

Q: For Cc1cccc(F)c1NC(=O)c1cc2c(s1)-c1ccccc1N(C(=O)c1cccc(N(C)Cc3ccc4ncccc4c3)n1)CC2 [Example 360], which EC50 is on record?
A: < 400 nM

Q: Which EC50 does the source give for Cc1cccc(F)c1NC(=O)c1cc2c(s1)-c1ccccc1N(C(=O)c1cccc(NCC3(C)CCCO3)n1)CC2 (stereo not drawn) [Example 361] here?
A: > 800 nM

Q: For Cc1cccc(F)c1NC(=O)c1cc2c(s1)-c1ccccc1N(C(=O)c1cccc(N(C)C3CCOCC3)n1)CC2 [Example 362], which EC50 is on record?
A: < 400 nM

Q: Cc1cccc(F)c1NC(=O)c1cc2c(s1)-c1ccccc1N(C(=O)c1cccc(N3CCOc4ccccc4C3)n1)CC2 [Example 363] was tested. Which EC50 did it give?
A: < 400 nM

Q: For Cc1cccc(F)c1NC(=O)c1cc2c(s1)-c1ccccc1N(C(=O)c1cccc(N3CCOc4ccccc4C3C)n1)CC2 (stereo not drawn) [Example 364], which EC50 is on record?
A: > 800 nM

Q: How did the EC50 turn out when Cc1cccc(F)c1NC(=O)c1cc2c(s1)-c1ccccc1N(C(=O)c1cccc(N3CCOc4c(F)cccc4C3)n1)CC2 [Example 365] was run?
A: < 400 nM

Q: How did the EC50 turn out when COc1ccc2c(c1)OCCN(c1cccc(C(=O)N3CCc4cc(C(=O)Nc5c(C)cccc5F)sc4-c4ccccc43)n1)C2 [Example 366] was run?
A: < 400 nM

Q: How did the EC50 turn out when Cc1cccc(F)c1NC(=O)c1cc2c(s1)-c1ccccc1N(C(=O)c1cccc(N3CCOc4ccc(Br)cc4C3)n1)CC2 [Example 367] was run?
A: < 400 nM

Q: For Cc1cccc(F)c1NC(=O)c1cc2c(s1)-c1ccccc1N(C(=O)c1cccc(N3CCOc4cccc(F)c4C3)n1)CC2 [Example 368], which EC50 is on record?
A: < 400 nM

Q: Cc1cccc(F)c1NC(=O)c1cc2c(s1)-c1ccccc1N(C(=O)c1cccc(N3CCOc4cccc(Br)c4C3)n1)CC2 [Example 369] was tested. Which EC50 did it give?
A: 400 to 800 nM

Q: For Cc1cccc(F)c1NC(=O)c1cc2c(s1)-c1ccccc1N(C(=O)c1cccc(N(C)CCNC(=O)OC(C)(C)C)n1)CC2 [Example 370], which EC50 is on record?
A: 400 to 800 nM

Q: Cc1cccc(F)c1NC(=O)c1cc2c(s1)-c1ccccc1N(C(=O)c1cccc(N(C)CCN)n1)CC2 [Example 371] was tested. Which EC50 did it give?
A: 400 to 800 nM

Q: For CC(=O)NCCN(C)c1cccc(C(=O)N2CCc3cc(C(=O)Nc4c(C)cccc4F)sc3-c3ccccc32)n1 [Example 372], which EC50 is on record?
A: 400 to 800 nM

Q: With COC(C)(C)CNc1cccc(C(=O)N2CCc3cc(C(=O)Nc4c(C)cccc4F)sc3-c3ccccc32)n1 [Example 373] as the compound, how does the EC50 read?
A: < 400 nM

Q: Cc1cccc(F)c1NC(=O)c1cc2c(s1)-c1ccccc1N(C(=O)c1cccc(N3CCC4C(C3)C4(F)F)n1)CC2 (stereo not drawn) [Example 374] was tested. Which EC50 did it give?
A: 400 to 800 nM

Q: For Cc1cccc(F)c1NC(=O)c1cc2c(s1)-c1ccccc1N(C(=O)c1cccc(N3CCCC(C)(C)CC3)n1)CC2 [Example 375], which EC50 is on record?
A: 400 to 800 nM

Q: Which EC50 does the source give for Cc1cccc(F)c1NC(=O)c1cc2c(s1)-c1ccccc1N(C(=O)c1cccc(N3C[C@H]4COC[C@H]4C3)n1)CC2 [Example 376] here?
A: > 800 nM

Q: How did the EC50 turn out when Cc1cccc(F)c1NC(=O)c1cc2c(s1)-c1ccccc1N(C(=O)c1cccc(N3CCCN(S(C)(=O)=O)c4ccccc43)n1)CC2 [Example 377] was run?
A: > 800 nM

Q: CC(=O)N1CCCN(c2cccc(C(=O)N3CCc4cc(C(=O)Nc5c(C)cccc5F)sc4-c4ccccc43)n2)c2ccccc21 [Example 378] was tested. Which EC50 did it give?
A: < 400 nM

Q: Which EC50 does the source give for Cc1cccc(F)c1NC(=O)c1cc2c(s1)-c1ccccc1N(C(=O)c1cccc(N3CCN(S(C)(=O)=O)Cc4ccccc43)n1)CC2 [Example 379] here?
A: > 800 nM

Q: For Cc1cccc(F)c1NC(=O)c1cc2c(s1)-c1ccccc1N(C(=O)c1cccc(N3CCCN(C(=O)OC(C)(C)C)CC3)n1)CC2 [Example 380], which EC50 is on record?
A: < 400 nM

Q: For Cc1cccc(F)c1NC(=O)c1cc2c(s1)-c1ccccc1N(C(=O)c1cccc(N3CCCNCC3)n1)CC2 [Example 381], which EC50 is on record?
A: > 800 nM

Q: How did the EC50 turn out when Cc1cccc(F)c1NC(=O)c1cc2c(s1)-c1ccccc1N(C(=O)c1cccc(N3CCCN(S(=O)(=O)C4CC4)CC3)n1)CC2 [Example 382] was run?
A: < 400 nM

Q: Which EC50 does the source give for Cc1cccc(F)c1NC(=O)c1cc2c(s1)-c1ccccc1N(C(=O)c1cccc(N3CCCN(S(=O)(=O)C4(C)CC4)CC3)n1)CC2 [Example 383] here?
A: < 400 nM

Q: For Cc1cccc(F)c1NC(=O)c1cc2c(s1)-c1ccccc1N(C(=O)c1cccc(N3CCCN(S(C)(=O)=O)CC3)n1)CC2 [Example 384], which EC50 is on record?
A: < 400 nM

Q: Which EC50 does the source give for Cc1cccc(F)c1NC(=O)c1cc2c(s1)-c1ccccc1N(C(=O)c1cccc(N3CCCN(S(=O)(=O)C4CCCCC4)CC3)n1)CC2 [Example 385] here?
A: < 400 nM

Q: How did the EC50 turn out when Cc1cccc(F)c1NC(=O)c1cc2c(s1)-c1ccccc1N(C(=O)c1cccc(N3CCCN(S(=O)(=O)c4ccccc4)CC3)n1)CC2 [Example 386] was run?
A: < 400 nM

Q: With CC(=O)N1CCCN(c2cccc(C(=O)N3CCc4cc(C(=O)Nc5c(C)cccc5F)sc4-c4ccccc43)n2)CC1 [Example 387] as the compound, how does the EC50 read?
A: < 400 nM

Q: Cc1cccc(F)c1NC(=O)c1cc2c(s1)-c1ccccc1N(C(=O)c1cccc(N3CCCN(C(=O)C4CC4)CC3)n1)CC2 [Example 388] was tested. Which EC50 did it give?
A: < 400 nM

Q: Cc1cccc(F)c1NC(=O)c1cc2c(s1)-c1ccccc1N(C(=O)c1cccc(N3C[C@@H](NC(=O)OC(C)(C)C)C[C@@H]3C)n1)CC2 [Example 389] was tested. Which EC50 did it give?
A: < 400 nM

Q: How did the EC50 turn out when Cc1cccc(F)c1NC(=O)c1cc2c(s1)-c1ccccc1N(C(=O)c1cccc(N3C[C@@H](N)C[C@@H]3C)n1)CC2 [Example 390] was run?
A: > 800 nM

Q: With COC(=O)N[C@H]1C[C@H](C)N(c2cccc(C(=O)N3CCc4cc(C(=O)Nc5c(C)cccc5F)sc4-c4ccccc43)n2)C1 [Example 391] as the compound, how does the EC50 read?
A: < 400 nM

Q: For Cc1cccc(F)c1NC(=O)c1cc2c(s1)-c1ccccc1N(C(=O)c1cccc(N3C[C@@H](NS(C)(=O)=O)C[C@@H]3C)n1)CC2 [Example 392], which EC50 is on record?
A: 400 to 800 nM

Q: COc1cccc(Oc2cccc(C(=O)N3CCc4cc(C(=O)NC5CC5)sc4-c4ccccc43)n2)c1 [Example 393] was tested. Which EC50 did it give?
A: > 800 nM

Q: COc1ncccc1Oc1cccc(C(=O)N2CCc3cc(C(=O)NC4CC4)sc3-c3ccccc32)n1 [Example 394] was tested. Which EC50 did it give?
A: > 800 nM

Q: For Cc1cccc(F)c1NC(=O)c1cc2c(s1)-c1cc(F)ccc1N(C(=O)c1cccc(N3CCOc4ccccc4C3)n1)CC2 [Example 395], which EC50 is on record?
A: < 400 nM

Q: Which EC50 does the source give for Cc1cccc(F)c1NC(=O)c1ccc2c(c1)CCN(C(=O)c1cccc(N3CCCOCC3)n1)c1ccccc1-2 [Example 396] here?
A: > 800 nM

Q: How did the EC50 turn out when O=C(NC1CC1)c1ccc2c(c1)CCN(C(=O)c1cccc(N3CCOc4ccccc4C3)n1)c1ccccc1-2 [Example 397] was run?
A: > 800 nM

Q: How did the EC50 turn out when NNC(=O)c1ccc2c(c1)CCN(C(=O)c1cccc(N3CCOc4ccccc4C3)n1)c1ccccc1-2 [Example 398] was run?
A: > 800 nM

Q: For Cc1cccc(F)c1NC(=O)c1cc2c(s1)-c1ccccc1N(C(=O)c1cccc(N3CCOCC(F)(F)C3)n1)CC2 [Example 400], which EC50 is on record?
A: < 400 nM

Q: For Cc1cccc(F)c1NC(=O)c1cc2c(s1)-c1ccccc1N(C(=O)c1cccc(N3CCCOCC3=O)n1)CC2 [Example 401], which EC50 is on record?
A: > 800 nM

Q: With Cc1cccc(F)c1NC(=O)c1cc2c(s1)-c1ccccc1N(C(=O)c1cccc(N3CCCOC(C)(C)C3)n1)CC2 [Example 402] as the compound, how does the EC50 read?
A: < 400 nM

Q: For Cc1cccc(F)c1NC(=O)c1cc2c(s1)-c1ccccc1N(C(=O)c1cccc(N3CCCC(F)(F)CC3)n1)CC2 [Example 403], which EC50 is on record?
A: < 400 nM

Q: How did the EC50 turn out when Cc1cccc(F)c1NC(=O)c1cc2c(s1)-c1ccccc1N(C(=O)c1cccc(N3CCCOc4ccccc43)n1)CC2 [Example 404] was run?
A: < 400 nM

Q: Cc1cccc2c1CN(c1cccc(C(=O)N3CCc4cc(C(=O)Nc5c(C)cccc5F)sc4-c4ccccc43)n1)CCO2 [Example 405] was tested. Which EC50 did it give?
A: < 400 nM
